From patent EP4722201A1, “3-PHENYLISOXAZOLINE-5-CARBOXAMIDE COMPOUND, AND PREPARATION METHOD THEREFOR, HERBICIDAL COMPOSITION THEREOF AND USE THEREOF” (Jiangsu Flag Chemical Industry Co., Ltd, priority 2023, dated 2024)

Assays:
Assay type in all cases: in vivo
Alopecurus myosuroides = assay: Indoor herbicide activity determination, Seed Treatment; pre-emergence (soil spray); conditions: Dosage 240 g a.i./ha
How it was run: (§1)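 Sow seeds into soil-filled 7 cm pots (sandy, pH 6.1, 1% organic matter) and cover them. Water from beneath, then incubate 24 h in a lit, temperature-controlled chamber. Spray the soil in a traveling tower, let it dry in shade, grow on 21 days, and weigh fresh biomass against controls.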

Lolium multiflorum = assay: as above; conditions: Dosage 240 g a.i./ha
How it was run: as §1

Eleusine indica = assay: as above; conditions: Dosage 240 g a.i./ha
How it was run: as §1

Alopecurus japonicus = assay: as above; conditions: Dosage 240 g a.i./ha
How it was run: as §1

Leptochloa chinensis = assay: as above; conditions: Dosage 240 g a.i./ha
How it was run: as §1

Eclipta prostrata = assay: Indoor herbicide activity determination, post-emergence (stem and leaf spray at 2-4 leaf stage); conditions: 504 h, 60 g a.i./ha, determined 21 days later, read-out: Inhibition rate of fresh weight, Eclipta prostrata
Excerpt: (§2) The testing method for herbicide activity of the compound of the present invention was as follows:
(§3) Post-emergence: an appropriate quantity of seeds of gramineous weeds (Echinochloa crusgalli, Eleusine indica, Digitaria sanguinalis, Alopecurus japonicus, Beckmannia syzigachne, Leptochloa chinensis, Polypogon fugax, Alopecurus aequalis, Lolium multiflorum, Poa annua, Aegilops tauschii, Avena fatua, Alopecurus myosuroides, Alopecurus japonicus and Alopecurus aequalis), broad-leaved weeds (Eclipta prostrata, Amaranthus retroflexus, Rorippa indica, Malachium aquaticum, Veronica polita, Conyza canadensis, Sesbania cannabina, Sagittariatrifolia and Schoenoplectiella juncoides), and Cyperus iria were sown in plastic pots having a diameter of 7 cm and holes at the bottom and filled with nutrient soil (sandy soil, pH 6.1, organic matter 1%) respectively, the seeds were covered with an appropriate amount of soil after being sown, then the soil was wetted with water from the bottom, the seeds were cultured in a constant-temperature illuminated culture room until a 2-4 leaf stage, and stems and leaves underwent spray treatment. After the treatment, the test materials were placed in a laboratory and cultured in the constant-temperature illuminated culture room after the liquid was naturally dry in the shade, and results were determined 21 days later. Inhibition rate of fresh weight % = (1−(fresh weight of treated plants)/(fresh weight of control plants)) × 100% [formula]

Digitaria sanguinalis = assay: as above; conditions: 504 h, 60 g a.i./ha, determined 21 days later, read-out: Inhibition rate of fresh weight, Digitaria sanguinalis
Excerpt: as §2, §3

Cyperus iria = assay: as above; conditions: 504 h, 60 g a.i./ha, determined 21 days later, read-out: Inhibition rate of fresh weight, Cyperus iria
Excerpt: as §2, §3

SMILES	Herbicidal activities, Alopecurus myosuroides (inhibition rate class) (Alopecurus myosuroides)	Herbicidal activities, Lolium multiflorum (inhibition rate class) (Lolium multiflorum)	Herbicidal activities, Eleusine indica (inhibition rate class) (Eleusine indica)	Herbicidal activities, Alopecurus japonicus (inhibition rate class) (Alopecurus japonicus)	Herbicidal activities, Leptochloa chinensis (inhibition rate class) (Leptochloa chinensis)	inhibition at 60 g/ha (Eclipta prostrata)	inhibition at 60 g/ha (Digitaria sanguinalis)	inhibition at 60 g/ha (Cyperus iria)
C=CC1(C(=O)N[C@H]2C[C@@H](C(=O)OC)C2)CC(c2cc(F)cc(C(F)(F)F)c2)=NO1 (mixture of isomers) [I-51]	A (A indicates that the inhibition rate was greater than or equal to 80% to 100%)	A (A indicates that the inhibition rate was greater than or equal to 80% to 100%)	A (A indicates that the inhibition rate was greater than or equal to 80% to 100%)	A (A indicates that the inhibition rate was greater than or equal to 80% to 100%)	A (A indicates that the inhibition rate was greater than or equal to 80% to 100%)	60 to 80%	60 to 80%	80 to 100%
C=CC1(C(=O)N[C@H]2C[C@@H](C(=O)O)C2)CC(c2cc(F)cc(Cl)c2)=NO1 (mixture of isomers) [I-27]	A (A indicates that the inhibition rate was greater than or equal to 80% to 100%)	A (A indicates that the inhibition rate was greater than or equal to 80% to 100%)	A (A indicates that the inhibition rate was greater than or equal to 80% to 100%)	A (A indicates that the inhibition rate was greater than or equal to 80% to 100%)	A (A indicates that the inhibition rate was greater than or equal to 80% to 100%)	40 to 60%	80 to 100%	80 to 100%
COC(=O)[C@H]1C[C@@H](NC(=O)C2(C)CC(c3cc(Cl)cc(Cl)c3)=NO2)C1 (mixture of isomers) [I-139]	A (A indicates that the inhibition rate was greater than or equal to 80% to 100%)	A (A indicates that the inhibition rate was greater than or equal to 80% to 100%)	A (A indicates that the inhibition rate was greater than or equal to 80% to 100%)	A (A indicates that the inhibition rate was greater than or equal to 80% to 100%)	A (A indicates that the inhibition rate was greater than or equal to 80% to 100%)	40 to 60%	80 to 100%	80 to 100%
C=CC1(C(=O)N[C@H]2C[C@@H](C(=O)OC)C2)CC(c2cc(Cl)cc(Cl)c2)=NO1 (mixture of isomers) [I-39]	A (A indicates that the inhibition rate was greater than or equal to 80% to 100%)	A (A indicates that the inhibition rate was greater than or equal to 80% to 100%)	A (A indicates that the inhibition rate was greater than or equal to 80% to 100%)	A (A indicates that the inhibition rate was greater than or equal to 80% to 100%)	A (A indicates that the inhibition rate was greater than or equal to 80% to 100%)	60 to 80%	80 to 100%	80 to 100%
O=C(N[C@H]1C[C@@H](C(=O)O)C1)C1(C(F)(F)F)CC(c2cc(Cl)cc(C(F)(F)F)c2)=NO1 (relative stereo) [I-245]	A (A indicates that the inhibition rate was greater than or equal to 80% to 100%)	A (A indicates that the inhibition rate was greater than or equal to 80% to 100%)	A (A indicates that the inhibition rate was greater than or equal to 80% to 100%)	A (A indicates that the inhibition rate was greater than or equal to 80% to 100%)	A (A indicates that the inhibition rate was greater than or equal to 80% to 100%)	60 to 80%	80 to 100%	80 to 100%
